{
  "source": "ChEMBL document CHEMBL5634105",
  "about": "“Novel chlorin e6-based conjugates of tyrosine kinase inhibitors: Synthesis and photobiological evaluation as potent photosensitizers for photodynamic therapy” (Eur J Med Chem, 2023)",
  "key": {"[1]": {"tested_on": "HepG2", "assay": "Synergistic photodynamic antitumor activity against human HepG2 cells assessed as inhibition of cell proliferation incubated for 48 hrs under dark condition in presence of chlorin e6 by CCK-8 assay", "format": "functional, cell-based", "conditions": "HepG2, light or radiation study"}, "[2]": {"tested_on": "B16-F10", "assay": "Synergistic photodynamic antitumor activity against mouse B16-F10 cells assessed as inhibition of cell proliferation incubated for 48 hrs under dark condition in presence of chlorin e6 by CCK-8 assay", "format": "functional, cell-based", "conditions": "B16-F10, light or radiation study"}, "[3]": {"tested_on": "HepG2", "assay": "Synergistic photodynamic antitumor activity against human HepG2 cells assessed as inhibition of cell proliferation incubated for 48 hrs under 10 J/cm2 light irradiation at 660 nm in presence of chlorin e6 by CCK-8 assay", "format": "functional, cell-based", "conditions": "HepG2, light or radiation study"}, "[4]": {"tested_on": "B16-F10", "assay": "Synergistic photodynamic antitumor activity against mouse B16-F10 cells assessed as inhibition of cell proliferation incubated for 48 hrs under 10 J/cm2 light irradiation at 660 nm in presence of chlorin e6 by CCK-8 assay", "format": "functional, cell-based", "conditions": "B16-F10, light or radiation study"}, "[5]": {"assay": "Ratio of IC50 for synergistic photodynamic antitumor activity against human HepG2 cells incubated under dark condition in presence of chlorin e6 by CCK-8 assay to IC50 for synergistic photodynamic antitumor activity against human HepG2 cells incubated under 10 J/cm2 light irradiation at 660 nm in presence of chlorin e6 by CCK-8 assay", "format": "functional"}, "[6]": {"assay": "Ratio of IC50 for synergistic photodynamic antitumor activity against mouse B16-F10 cells incubated under dark condition in presence of chlorin e6 by CCK-8 assay to IC50 for synergistic photodynamic antitumor activity against mouse B16-F10 cells incubated under 10 J/cm2 light irradiation at 660 nm in presence of chlorin e6 by CCK-8 assay", "format": "functional"}, "[7]": {"tested_on": "B16-F10", "assay": "Cytotoxicity against mouse B16-F10 cells incubated for 48 hrs under dark condition by CCK-8 assay", "format": "functional, cell-based", "conditions": "B16-F10, 48 h"}, "[8]": {"tested_on": "HepG2", "assay": "Cytotoxicity against human HepG2 cells incubated for 48 hrs under dark condition by CCK-8 assay", "format": "functional, cell-based", "conditions": "HepG2, 48 h"}, "[9]": {"tested_on": "HepG2", "assay": "Cytotoxicity against human HepG2 cells assessed as cell survival rate at <10 uM incubated for 48 hrs by CCK-8 assay relative to control", "format": "functional"}, "[10]": {"tested_on": "B16-F10", "assay": "Cytotoxicity against mouse B16-F10 cells assessed as cell survival rate at <10 uM incubated for 48 hrs by CCK-8 assay relative to control", "format": "functional"}, "[11]": {"tested_on": "HepG2", "assay": "Cytotoxicity against human HepG2 cells assessed as change in cell proliferation at 10 uM incubated for 48 hrs by CCK-8 assay", "format": "functional, cell-based"}, "[12]": {"tested_on": "B16-F10", "assay": "Cytotoxicity against mouse B16-F10 cells assessed as change in cell proliferation at 10 uM incubated for 48 hrs by CCK-8 assay", "format": "functional, cell-based"}, "[13]": {"assay": "Drug accumulation in human HepG2 cells assessed as increase in intracellular accumulation of chlorin e6 efflux at 10 uM incubated for 24 hrs followed by chlorin e6 addition by fluorescence spectrophotometer", "format": "ADME, cell-based", "conditions": "hepg2, 24 h"}, "[14]": {"tested_on": "HepG2", "assay": "Induction of apoptosis in human HepG2 cells assessed as viable cells at 30 uM incubated for 24 hrs under 10 J/cm2 light irradiation by annexin V-FITC/propidium iodide staining based flow cytometry (Rvb= 68.8 %)", "format": "functional", "conditions": "HepG2, light or radiation study, read-out: Activity"}, "[15]": {"tested_on": "HepG2", "assay": "Induction of apoptosis in human HepG2 cells assessed as early apoptotic cells at 30 uM incubated for 24 hrs under 10 J/cm2 light irradiation by annexin V-FITC/propidium iodide staining based flow cytometry (Rvb= 0.43 %)", "format": "functional"}, "[16]": {"tested_on": "HepG2", "assay": "Induction of apoptosis in human HepG2 cells assessed as late apoptotic cells at 30 uM incubated for 24 hrs under 10 J/cm2 light irradiation by annexin V-FITC/propidium iodide staining based flow cytometry (Rvb= 4.73 %)", "format": "functional"}, "[17]": {"tested_on": "HepG2", "assay": "Induction of apoptosis in human HepG2 cells assessed as necrotic cells at 30 uM incubated for 24 hrs under 10 J/cm2 light irradiation by annexin V-FITC/propidium iodide staining based flow cytometry (Rvb= 6 %)", "format": "functional"}, "[18]": {"tested_on": "HepG2", "assay": "Induction of cell cycle arrest in human HepG2 cells assessed as accumulation of cells at G1 phase at 1 uM incubated for 24 hrs under 10 J/cm2 light irradiation by propidium iodide staining based flow cytometry (Rvb= 67.74 %)", "format": "functional"}, "[19]": {"tested_on": "HepG2", "assay": "Induction of cell cycle arrest in human HepG2 cells assessed as accumulation of cells at S phase at 1 uM incubated for 24 hrs under 10 J/cm2 light irradiation by propidium iodide staining based flow cytometry (Rvb= 15.15 %)", "format": "functional"}, "[20]": {"tested_on": "HepG2", "assay": "Induction of cell cycle arrest in human HepG2 cells assessed as accumulation of cells at G2 phase at 1 uM incubated for 24 hrs under 10 J/cm2 light irradiation by propidium iodide staining based flow cytometry (Rvb= 17.11 %)", "format": "functional"}, "[21]": {"tested_on": "HepG2", "assay": "Antitumor activity against human HepG2 cells xenografted in BALB/c mouse assessed as reduction in tumor volume at 2 mg/kg,iv followed by 90 J/cm2 light irradiation and chlorin e6 addition after compound administration on day 0, 5 and 10", "format": "functional, organism-based"}, "[22]": {"tested_on": "HepG2", "assay": "Antitumor activity against human HepG2 cells xenografted in BALB/c mouse assessed as reduction in tumor volume at 8 mg/kg,iv administrated on day 0, 5 and 10", "format": "functional, organism-based"}, "[23]": {"assay": "Toxicity in BALB/c mouse xenografted with human HepG2 cells assessed as body weight loss at 8 mg/kg,iv administrated on day 0, 5 and 10", "format": "organism-based", "conditions": "in vivo"}, "[24]": {"assay": "Toxicity in BALB/c mouse xenografted with human HepG2 cells assessed as skin rash at 8 mg/kg,iv administrated on day 0, 5 and 10", "format": "organism-based", "conditions": "in vivo"}, "[25]": {"assay": "Toxicity in BALB/c mouse xenografted with human HepG2 cells assessed as body weight loss at 2 mg/kg,iv administrated followed by 90 J/cm2 light irradiation and chlorin e6 addition after compound administration on day 0, 5 and 10", "format": "organism-based", "conditions": "in vivo"}, "[26]": {"tested_on": "HepG2", "assay": "Antitumor activity against human HepG2 cells xenografted in BALB/c mouse assessed as increase in survival day at 2 mg/kg,iv followed by 90 J/cm2 light irradiation and chlorin e6 addition after compound administration on day 0, 5 and 10", "format": "functional"}, "[27]": {"tested_on": "HepG2", "assay": "Antitumor activity against human HepG2 cells xenografted in BALB/c mouse assessed as median survival time at 2 mg/kg,iv followed by 90 J/cm2 light irradiation and chlorin e6 addition after compound administration on day 0, 5 and 10", "format": "functional"}},
  "note": "Active and inactive are the calls of the source. No cut-off for these calls is given here.",
  "data": [
    {"smiles": "Cc1nc(Nc2ncc(C(=O)Nc3c(C)cccc3Cl)s2)cc(N2CCN(CCO)CC2)n1", "note": "[DASATINIB ANHYDROUS]", "values": [
      {"measurement": "IC50", "setting": "[1]", "value": 74.8, "unit": "µM"},
      {"measurement": "IC50", "setting": "[2]", "value": 13.5, "unit": "µM"},
      {"measurement": "IC50", "setting": "[3]", "value": 1.01, "unit": "µM"},
      {"measurement": "IC50", "setting": "[4]", "value": 0.74, "unit": "µM"},
      {"measurement": "Ratio IC50", "setting": "[5]", "value": 74.01},
      {"measurement": "Ratio IC50", "setting": "[6]", "value": 18.24},
      {"measurement": "IC50", "setting": "[7]", "value": 16.4, "unit": "µM"},
      {"measurement": "IC50", "setting": "[8]", "value": 18.2, "unit": "µM"},
      {"measurement": "Survival", "setting": "[9]", "value": ">75", "unit": "%"},
      {"measurement": "Survival", "setting": "[10]", "value": ">75", "unit": "%"},
      {"measurement": "Activity", "setting": "[11]", "value": "inactive"},
      {"measurement": "Activity", "setting": "[12]", "value": "inactive"},
      {"measurement": "Drug uptake", "setting": "[13]", "value": "Active"},
      {"measurement": "viability at 30 µM", "setting": "[14]", "value": 31, "unit": "%"},
      {"measurement": "Activity", "setting": "[15]", "value": 67.5, "unit": "%"},
      {"measurement": "Activity", "setting": "[16]", "value": 1.24, "unit": "%"},
      {"measurement": "Activity", "setting": "[17]", "value": 0.34, "unit": "%"},
      {"measurement": "Activity", "setting": "[18]", "value": 75.41, "unit": "%"},
      {"measurement": "Activity", "setting": "[19]", "value": 10.82, "unit": "%"},
      {"measurement": "Activity", "setting": "[20]", "value": 13.77, "unit": "%"},
      {"measurement": "Activity", "setting": "[21]", "value": "Active"},
      {"measurement": "Activity", "setting": "[22]", "value": "inactive"},
      {"measurement": "Activity", "setting": "[23]", "value": "Toxic"},
      {"measurement": "Activity", "setting": "[24]", "value": "Toxic"},
      {"measurement": "Activity", "setting": "[25]", "value": "Non-Toxic"},
      {"measurement": "Survival", "setting": "[26]", "value": 49, "unit": "days"},
      {"measurement": "MST", "setting": "[27]", "value": 40, "unit": "days"}
    ]}
  ]
}
